# From ChEMBL document CHEMBL2177041, “Identification of new potent GPR119 agonists by combining virtual screening and combinatorial chemistry” (J Med Chem, 2012)
# Columns and labels:
# [1] = target: T1, Glucose-dependent insulinotropic receptor (Homo sapiens) (UniProt Q8TDV5); test: Intrinsic activity at human GPR119 expressed in MIN6 cells assessed as intracellular cAMP level after 45 mins by ALPHAscreen cAMP assay relative to N-(4-methanesulfonylphenyl)-5-nitro-6-[4-(phenylsulfanyl)piperidin-1-yl]pyrimidin-4-amine; type: functional, cell-based
# T1 sequence (whole entry): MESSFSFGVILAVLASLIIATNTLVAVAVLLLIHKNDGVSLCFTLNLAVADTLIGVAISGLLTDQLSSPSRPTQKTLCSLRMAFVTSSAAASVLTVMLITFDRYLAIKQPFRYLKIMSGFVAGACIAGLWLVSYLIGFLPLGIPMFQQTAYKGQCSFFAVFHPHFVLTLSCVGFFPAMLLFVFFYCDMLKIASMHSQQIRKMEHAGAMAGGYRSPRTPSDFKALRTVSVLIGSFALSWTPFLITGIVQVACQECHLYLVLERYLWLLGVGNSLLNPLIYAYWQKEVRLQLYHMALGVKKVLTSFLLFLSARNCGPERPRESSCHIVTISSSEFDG
# [2] = target: T2, Glucose-dependent insulinotropic receptor (Homo sapiens, UniProt Q8TDV5); test: Agonist activity at human GPR119 expressed in MIN6 cells assessed as intracellular cAMP level after 45 mins by ALPHAscreen cAMP assay; type: functional, cell-based
# T2 sequence (Q8TDV5 whole entry): T1 sequence (whole entry)
Intrinsic activity [1] [%],EC50 [2] [µM],SMILES
160,0.021,C[S+]([O-])c1cc(F)c(NC(=O)C2=NOC3(CCN(c4nc(-c5ccccc5)no4)CC3)C2)cc1F (stereo not drawn)
170,0.093,CC(C)(C)OC(=O)N1CCC2(CC1)CC(C(=O)Nc1cc(F)c(C#N)cc1F)=NO2
165,0.8,CC(C)(C)OC(=O)N1CCC2(CCN(C(=O)Nc3ccc(S(C)(=O)=O)cc3Br)CC2)CC1
173,0.03,N#Cc1cc(F)c(NC(=O)C2=NOC3(CCN(c4nc(-c5ccccc5)no4)CC3)C2)cc1F
